Assay results published in article PMC11942905, “Identification of a Selective Inhibitor of Human NFS1, a Cysteine Desulfurase Involved in Fe-S Cluster Assembly, via Structure-Based Virtual Screening” (International Journal of Molecular Sciences, 2025).

Legend:
[1] = system: A549 cells; experiment: Lipid peroxide (LPO) content; type: cell-based, human; conditions: 48 h, Erastin 2.5 µM, Compound 53 50 µM, 2-AAPA 20 µM, alone or combined
Protocol: A549 cells were seeded in 10 cm dishes at a density of 2 × 10^6 cells per dish and cultured until they reached 40–60% confluence. […] Lipid peroxidation (LPO) levels were measured using a Lipid Peroxide (LPO) Content Assay Kit (Solarbio, China) following the manufacturer’s instructions.

[2] = target: T1, NFS1 K157A (Homo sapiens, UniProt Q9Y697, K157A); experiment: H2S-producing assay, NFS1 K157A mutant; type: biochemical
T1 construct: His tag (N); made in house; host or cells: E. coli BL21(DE3)
T1 sequence (Q9Y697 56-457 K157A): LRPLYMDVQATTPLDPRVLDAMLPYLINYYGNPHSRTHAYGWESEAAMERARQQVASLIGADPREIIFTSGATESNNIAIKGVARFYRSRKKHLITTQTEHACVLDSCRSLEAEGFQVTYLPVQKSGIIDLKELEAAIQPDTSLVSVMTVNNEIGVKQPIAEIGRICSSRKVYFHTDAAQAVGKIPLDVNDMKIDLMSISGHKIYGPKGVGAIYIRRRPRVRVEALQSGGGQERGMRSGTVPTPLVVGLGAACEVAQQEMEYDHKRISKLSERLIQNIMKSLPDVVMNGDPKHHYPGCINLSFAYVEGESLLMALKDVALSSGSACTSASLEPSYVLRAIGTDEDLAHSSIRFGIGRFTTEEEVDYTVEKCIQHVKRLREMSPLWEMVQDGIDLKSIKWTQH
Protocol: (§1) To further validate the accuracy of the simulated results, the residues Cys158, Glu387, Lys157, and His156 were mutated to alanine using site-directed mutagenesis.
(§2) For the expression and purification of NFS1Δ1-55/ISD11 in E. coli, the plasmid pNFS1-ISD11 was transformed into BL21(DE3) cells. The cells were grown at 37 °C in 1 L cultures of LB medium containing chloramphenicol (50 μg/ml) until the optical density at 600 nm (OD600) reached 0.6–0.8. Protein expression was induced by adding 0.1 mM isopropyl β-D-1-thiogalactopyranoside (IPTG), followed by an additional 12 h of incubation at 25 °C. The cells were harvested by centrifugation at 8000 rpm for 10 min at 4 °C, then resuspended in lysis buffer containing 50 mM phosphate-buffered saline (PBS, pH 7.4), 500 mM NaCl, 100 mg/L lysozyme, 30 mM imidazole, and 1 mM phenylmethanesulfonyl fluoride (PMSF). The resuspended cells were incubated on ice for 1 h, followed by sonication using an Ultrasonic Cell Disruption System (Scientz, Ningbo, China). The supernatant was obtained by centrifugation at 12,000 rpm for 30 min at 4 °C and was loaded onto a HisTrap FF column (GE Healthcare, Chicago, MA, USA) pre-equilibrated with lysis buffer. […] The protein concentration was measured using a BCA protein assay reagent kit (TransGen Biotech, Beijing, China).

[3] = target: T2, human NFS1 (Homo sapiens, UniProt Q9Y697); experiment: NFS1 inhibition assay (H2S-producing, methylene blue); type: biochemical
T2 construct: His tag (N); made in house; host or cells: E. coli BL21(DE3)
T2 sequence (Q9Y697 56-457): as the sequence (Q9Y697 56-457 K157A) above, with A102K counted along it
Protocol: The 42 candidate compounds were tested for their inhibitory effects on human NFS1 using an in vitro H2S-producing assay. […] Subsequently, the effects of the selected compounds (100 µM) on human NFS1 activity were evaluated.
The activity of NFS1 was determined using a methylene blue assay as described previously, with some modifications. Briefly, reaction mixtures (200 μL) containing 50 mM of Tris-HCl (pH 8.0), 10 μM of PLP, 1 mM of DTT, and 10 μg of NFS1 were preincubated at 37 °C for 3 min. The reaction was then initiated by adding 1 mM of cysteine. After 15 min of incubation at 37 °C, the reaction was quenched by adding 25 μL of 20 mM N,N-dimethyl-p-phenylenediamine in 7.2 M of HCl and 25 μL of 30 mM FeCl3 in 1.2 M of HCl. Subsequently, the reaction mixtures were incubated for another 15 min at 37 °C, followed by centrifugation at 12,000 rpm for 10 minutes to remove the precipitates. The absorbance of the supernatant was measured at 670 nm. A reaction mixture without the substrate cysteine was used as the negative control. The H2S concentration was calculated based on a standard curve prepared using various concentrations of sodium sulfide (Na2S).
For the NFS1 inhibition assays, all test compounds were dissolved in dimethyl sulfoxide (DMSO) to prepare 10 mM stock solutions, which were stored at −80 °C. The stock solutions were diluted to the appropriate concentrations with 50 mM of Tris-HCl (pH 8.0) as required for the experiments. A reaction mixture containing DMSO but no test compounds was used as a negative control. The dose-dependent effects of the inhibitors on NFS1 activity were determined using the methylene blue assay described above. The IC50 values of the inhibitors were calculated by adding different concentrations of the inhibitors to the enzyme reaction mixtures.

[4] = system: A549 cells; experiment: Endogenous ROS levels, DCFH-DA fluorescence; type: cell-based, human; conditions: 48 h, Compound 53 50 µM, Erastin 2.5 µM, 2-AAPA 20 µM
Protocol: Endogenous ROS levels in A549 cells were detected using the fluorescent dye DCFH-DA [48, 49]. A549 cells were cultured in DMEM supplemented with 10% fetal bovine serum at 37 °C in a humidified atmosphere containing 5% CO2. […] Subsequently, the cells were washed three times with prewarmed PBS, and fresh medium containing 10 μM of DCFH-DA was added. After 30 min of incubation, the cells were washed again with prewarmed PBS, fresh medium was added, and the cells were imaged using an inverted fluorescence microscope (Leica, Wetzlar, Germany). Images of live cells were acquired in six different fields. ImageJ software was used to analyze the images.

[5] = system: BEAS-2B cells; experiment: CCK-8 cell viability assay, BEAS-2B; type: cell-based; conditions: Homo sapiens, CCK-8, 72 h
Protocol: Human bronchial epithelial cells (BEAS-2B) and human lung adenocarcinoma A549 cells were purchased from the Institute of Biochemistry and Cell Biology, Chinese Academy of Sciences (Shanghai, China). BEAS-2B and A549 cells were cultured in DMEM supplemented with 10% (v/v) fetal bovine serum and 1% (v/v) penicillin–streptomycin solution at 37 °C in a humidified atmosphere containing 5% CO2. The half-maximal inhibitory concentration (IC50) values of the selected compounds against BEAS-2B and A549 cells were determined using the CCK-8 assay. Briefly, the cells were seeded into 96-well culture plates at a density of 5 × 10^3 cells per well. After 12 h of culture, fresh medium containing varying concentrations of the selected compounds dissolved in DMSO was added for an additional 72-hour incubation. Subsequently, 10 μL of CCK-8 solution was added to each well, followed by a further 1.5-h incubation at 37 °C. The optical density at 450 nm (OD450) for each well was measured using a microplate reader. Medium containing DMSO alone was used as the control group. Cell viability was calculated as the percentage of the OD450 of the experimental group compared to that of the control group, which was set at 100%.

[6] = target: T3, NFS1 H156A (Homo sapiens, UniProt Q9Y697, H156A); experiment: H2S-producing assay, NFS1 H156A mutant; type: biochemical
T3 construct: His tag (N); made in house; host or cells: E. coli BL21(DE3)
T3 sequence (Q9Y697 56-457 H156A): as the sequence (Q9Y697 56-457 K157A) above, with H101A, A102K counted along it
Protocol: as §1, §2

In the case of `COc1cc(/C=N/NC(=O)COc2ccc(Cl)cc2Cl)ccc1O` [Compound 53], the “intracellular lipid peroxide (LPO) levels” value [1] is reported as “no significant changes”, the IC50 [2] is reported as 53.2 ± 6.44 µM and the IC50 [3] is reported as 40.5 ± 3.85 µM. It also gave a Ki [3] of 6.4 ± 0.48 µM, a Vmax ([3]; inhibitor 5 μM) of 144.2 ± 2.81 nmol/min/mg and a Vmax ([3]; inhibitor 10 μM) of 143.3 ± 4.06 nmol/min/mg. It also gave a Vmax ([3]; inhibitor 20 μM) of 144.1 ± 4.88 nmol/min/mg, a Vmax ([3]; inhibitor 50 μM) of 143.5 ± 4.31 nmol/min/mg and a Vmax ([3]; inhibitor 100 μM) of 143.8 ± 8.75 nmol/min/mg. For the same molecule, the inhibition at 50 µM ([3]; read-out: inhibition of NFS1 activity) was 40 to 50%, the “Inhibition Type” value ([3]; versus substrate L-cysteine) was “competitive inhibitors” and the “intracellular ROS levels” value [4] was “did not significantly affect intracellular ROS levels”. For the same molecule, the IC50 [5] was 31 ± 3.98 µM and the IC50 [6] was 97.3 ± 1.39 µM.
